Patent publication US20150105252A1, “SUBSTITUTED PYRAZOLES AS HERBICIDES” (E I DU PONT DE NEMOURS AND COMPANY, priority 2013, published 2015)

What was measured:
bluegrass = assay: Test D preemergence; type: in vivo, Poa annua; conditions: scale 0 to 100
From the text: (§1) Seeds of plant species selected from bluegrass (annual bluegrass, Poa annua), blackgrass (Alopecurus myosuroides), canarygrass (littleseed canarygrass, Phalaris minor), chickweed (common chickweed, Stellaria media), galium (catchweed bedstraw, Galium aparine), bromegrass, downy (downy bromegrass, Bromus tectorum), field poppy (Papaver rhoeas), field violet (Viola arvensis), foxtail, green (green foxtail, Setaria viridis), deadnettle (henbit deadnettle, Lamium amplexicaule), ryegrass, Italian (Italian ryegrass, Lolium multiflorum), kochia (Kochia scoparia), lambsquarters (Chenopodium album), oilseed rape (Brassica napus), pigweed (redroot pigweed, Amaranthus retroflexus), chamomile (scentless chamomile, Matricaria inodora), speedwell (bird's-eye speedwell, Veronica persica), barley, spring (spring barley, Hordeum vulgare), wheat, spring (spring wheat, Triticum aestivum), buckwheat, wild (wild buckwheat, Polygonum convolvulus), mustard, wild (wild mustard, Sinapis arvensis), oat, wild (wild oat, Avena fatua), radish, wild (wild radish, Raphanus raphanistrum), windgrass (Apera spica-venti), Russian thistle (Salsola kali), barley, winter (winter barley, Hordeum vulgare), and wheat, winter (winter wheat, Triticum aestivum) were planted into a silt loam soil and treated preemergence with test chemicals formulated in a non-phytotoxic solvent mixture which included a surfactant.
(§2) At the same time, these species were planted in pots containing Redi-Earth® planting medium (Scotts Company, 14111 Scottslawn Road, Marysville, Ohio 43041) comprising spaghnum peat moss, vermiculite, wetting agent and starter nutrients and treated with postemergence applications of the test chemicals formulated in the same manner. Plants ranged in height from 2 to 18 cm (1- to 4-leaf stage). Treated plants and controls were maintained in a controlled growth environment for 14 to 21 days after which time all species were compared to controls and visually evaluated. Plant response ratings, summarized in Table D, are based on a scale of 0 to 100 where 0 is no effect and 100 is complete control. A dash (-) response means no test result.

field poppy = assay: Test D preemergence; type: in vivo, Papaver rhoeas; conditions: scale 0 to 100
From the text: as §1, §2

windgrass [1] = assay: Test D preemergence; type: in vivo, Apera spica-venti; conditions: scale 0 to 100
Summary of the method: (§3)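 Formulation was a non-phytotoxic solvent mixture plus surfactant, applied either to soil at planting (silt loam, preemergence) or to foliage of 2–18 cm plants (postemergence). Visual evaluation versus controls followed at 14–21 days, scored 0–100.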

canarygrass = assay: Test D postemergence; type: in vivo, Phalaris minor; conditions: scale 0 to 100
From the text: as §1, §2

bromegrass, downy = assay: Test D postemergence; type: in vivo, Bromus tectorum; conditions: scale 0 to 100
Summary of the method: as §3

field violet = assay: Test D postemergence; type: in vivo, Viola arvensis; conditions: scale 0 to 100
From the text: as §1, §2

pigweed = assay: Test D postemergence; type: in vivo, Amaranthus retroflexus; conditions: scale 0 to 100
From the text: as §1, §2

windgrass [2] = assay: Test D postemergence; type: in vivo, Apera spica-venti; conditions: scale 0 to 100
From the text: as §1, §2

corn = assay: Test F preemergence; type: in vivo, Zea mays
From the text: (§4) Seeds of plant species selected from corn (Zea mays), soybean (Glycine max), velvetleaf (Abutilon theophrasti), lambsquarters (Chenopodium album), wild poinsettia (Euphorbia heterophylla), pigweed, palmer (palmer pigweed, Amaranthus palmeri), common waterhemp (Amaranthus rudis), surinam grass (Brachiaria decumbens), large crabgrass (Digitaria sanguinalis), crabgrass, Brazil (Brazilian crabgrass, Digitaria horizontalis), fall panicum (Panicum dichotomiflorum), giant foxtail (Setaria faberii), green foxtail (Setaria viridis), goosegrass (Eleusine indica), johnsongrass (Sorghum halepense), common ragweed (Ambrosia elation), barnyardgrass (Echinochloa crus-galli), southern sandbur (Cenchrus echinatus), arrowleaf sida (Sida rhombifolia), Italian ryegrass (Lolium multiflorum), dayflower, VA (Virginia (VA) dayflower, Commelina virginica), field bindweed (Convolvulus arvensis), cocklebur (common cocklebur, Xanthium strumarium), morningglory (Ipomoea coccinea), nightshade (eastern black nightshade, Solanum ptycanthum), kochia (Kochia scoparia), yellow nutsedge (Cyperus esculentus), and hairy beggarticks (Bidens pilosa), were planted into a silt loam soil and treated preemergence with test chemicals formulated in a non-phytotoxic solvent mixture which included a surfactant.
(§5) At the same time, plants from these crop and weed species and also horseweed (Canada horseweed, Conyza canadensis), smartweed (ladysthumb smartweed, Polygonum persicaria), waterhemp_RES1, (ALS & Triazine resistant common waterhemp, Amaranthus rudis), and waterhemp_RES2, (ALS & HPPD resistant common waterhemp, Amaranthus rudis) were treated with postemergence applications of test chemicals formulated in the same manner. Plants ranged in height from 2 to 18 cm for postemergence treatments (1- to 4-leaf stage). Treated plants and controls were maintained in a greenhouse for 14 to 21 days, after which time all species were compared to controls and visually evaluated. Plant response ratings, summarized in Table F, are based on a scale of 0 to 100 where 0 is no effect and 100 is complete control. A dash (-) response means no test result.

Surinam grass = assay: Test F preemergence; type: in vivo, Brachiaria decumbens
Summary of the method: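 Seeds were sown in silt loam and sprayed preemergence with compound in a non-phytotoxic solvent mixture containing surfactant. Postemergence sprays went onto plants 2 to 18 cm tall (1- to 4-leaf stage). After 14 to 21 days in a greenhouse, injury was rated visually against untreated controls, 0 (no effect) to 100 (complete control).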

crabgrass, Brazil = assay: Test F preemergence; type: in vivo, Digitaria horizontalis
From the text: as §4, §5

common ragweed = assay: Test F preemergence; type: in vivo, Ambrosia elation
From the text: as §4, §5

barnyardgrass = assay: Test F preemergence; type: in vivo, Echinochloa crus-galli
From the text: as §4, §5

southern sandbur = assay: Test F preemergence; type: in vivo, Cenchrus echinatus
From the text: as §4, §5

[3] = Preemergence, 31 g ai/ha, scale 0 to 100
[4] = Preemergence, 62 g ai/ha, scale 0 to 100
[5] = Preemergence, 125 g ai/ha, scale 0 to 100
[6] = preemergence, 8 g ai/ha, scale 0 to 100, 100 is complete control
[7] = preemergence, 16 g ai/ha, scale 0 to 100, 100 is complete control

CCc1cc(C(=O)NCC(F)(F)F)nn1Cc1ccnc(C(F)(F)F)c1 [Compound 78, 5-ethyl-N-(2,2,2-trifluoroethyl)-1-[[(2-trifluoromethyl)-4-pyridinyl]methyl]-1H-pyrazole-3-carboxamide]
Plant response rating, Bluegrass (bluegrass; 31 g ai/ha): 50 | Plant response rating, Bluegrass (bluegrass; 62 g ai/ha): 80 | Plant response rating, Bluegrass (bluegrass; 125 g ai/ha): 95 | Plant response rating, Bluegrass (bluegrass; 250 g ai/ha): 100 | Plant response rating, Field Poppy (field poppy; 31 g ai/ha): 100 | Plant response rating, Field Poppy (field poppy; 62 g ai/ha): 100 | Plant response rating, Field Poppy (field poppy; 125 g ai/ha): 100 | Plant response rating, Field Poppy (field poppy; 250 g ai/ha): 100 | Plant response rating, Windgrass (windgrass [1]; 31 g ai/ha): 90 | Plant response rating, Windgrass (windgrass [1]; 62 g ai/ha): 100 | Plant response rating, Windgrass (windgrass [1]; 125 g ai/ha): 100 | Plant response rating, Windgrass (windgrass [1]; 250 g ai/ha): 100 | Canarygrass plant response rating (canarygrass; Postemergence, 31 g ai/ha): 5 | Canarygrass plant response rating (canarygrass; Postemergence, 125 g ai/ha): 15 | Canarygrass plant response rating (canarygrass; Postemergence, 250 g ai/ha): 25 | Canarygrass plant response rating (canarygrass; postemergence, 62 g ai/ha): 10 | Bromegrass, Downy plant response rating (bromegrass, downy; Postemergence, 31 g ai/ha): 10 | Bromegrass, Downy plant response rating (bromegrass, downy; Postemergence, 125 g ai/ha): 20 | Bromegrass, Downy plant response rating (bromegrass, downy; Postemergence, 250 g ai/ha): 25 | Bromegrass, Downy plant response rating (bromegrass, downy; postemergence, 62 g ai/ha): 15 | Field Violet plant response rating (field violet; Postemergence, 31 g ai/ha): 30 | Field Violet plant response rating (field violet; Postemergence, 125 g ai/ha): 60 | Field Violet plant response rating (field violet; Postemergence, 250 g ai/ha): 65 | Field Violet plant response rating (field violet; postemergence, 62 g ai/ha): 40 | Pigweed plant response rating (pigweed; Postemergence, 31 g ai/ha): 70 | Pigweed plant response rating (pigweed; Postemergence, 125 g ai/ha): 80 | Pigweed plant response rating (pigweed; Postemergence, 250 g ai/ha): 85 | Pigweed plant response rating (pigweed; postemergence, 62 g ai/ha): 75 | Windgrass plant response rating (windgrass [2]; Postemergence, 31 g ai/ha): 10 | Windgrass plant response rating (windgrass [2]; Postemergence, 125 g ai/ha): 35 | Windgrass plant response rating (windgrass [2]; Postemergence, 250 g ai/ha): 60 | Windgrass plant response rating (windgrass [2]; postemergence, 62 g ai/ha): 20 | Plant response rating, Corn (corn; [3]): 20 | Plant response rating, Corn (corn; [4]): 65 | Plant response rating, Corn (corn; [5]): 70 | Plant response rating, Corn (corn; [6]): 0 | Plant response rating, Corn (corn; [7]): 10 | Plant response rating, Surinam Grass (Surinam grass; [3]): 50 | Plant response rating, Surinam Grass (Surinam grass; [4]): 75 | Plant response rating, Surinam Grass (Surinam grass; [5]): 100 | Plant response rating, Surinam Grass (Surinam grass; [6]): 20 | Plant response rating, Surinam Grass (Surinam grass; [7]): 20 | Plant response rating, Crabgrass, Brazil (crabgrass, Brazil; [3]): 100 | Plant response rating, Crabgrass, Brazil (crabgrass, Brazil; [4]): 100 | Plant response rating, Crabgrass, Brazil (crabgrass, Brazil; [5]): 100 | Plant response rating, Crabgrass, Brazil (crabgrass, Brazil; [6]): 30 | Plant response rating, Crabgrass, Brazil (crabgrass, Brazil; [7]): 70 | Plant response rating, Common Ragweed (common ragweed; [3]): 90 | Plant response rating, Common Ragweed (common ragweed; [4]): 98 | Plant response rating, Common Ragweed (common ragweed; [5]): 100 | Plant response rating, Common Ragweed (common ragweed; [6]): 0 | Plant response rating, Common Ragweed (common ragweed; [7]): 30 | Plant response rating, Barnyardgrass (barnyardgrass; [3]): 35 | Plant response rating, Barnyardgrass (barnyardgrass; [4]): 98 | Plant response rating, Barnyardgrass (barnyardgrass; [5]): 100 | Plant response rating, Barnyardgrass (barnyardgrass; [6]): 0 | Plant response rating, Barnyardgrass (barnyardgrass; [7]): 25 | Plant response rating, Southern Sandbur (southern sandbur; [3]): 5 | Plant response rating, Southern Sandbur (southern sandbur; [4]): 80 | Plant response rating, Southern Sandbur (southern sandbur; [5]): 95 | Plant response rating, Southern Sandbur (southern sandbur; [6]): 0 | Plant response rating, Southern Sandbur (southern sandbur; [7]): 0

CCCc1cc(C(=O)NCC(F)(F)F)nn1Cc1ccnc(C(F)(F)F)c1 [Compound 105]
Plant response rating, Bluegrass (bluegrass; 31 g ai/ha): 55 | Plant response rating, Bluegrass (bluegrass; 62 g ai/ha): 80 | Plant response rating, Bluegrass (bluegrass; 125 g ai/ha): 100 | Plant response rating, Bluegrass (bluegrass; 250 g ai/ha): 100 | Plant response rating, Field Poppy (field poppy; 31 g ai/ha): 100 | Plant response rating, Field Poppy (field poppy; 62 g ai/ha): 100 | Plant response rating, Field Poppy (field poppy; 125 g ai/ha): 100 | Plant response rating, Field Poppy (field poppy; 250 g ai/ha): 100 | Plant response rating, Windgrass (windgrass [1]; 31 g ai/ha): 75 | Plant response rating, Windgrass (windgrass [1]; 62 g ai/ha): 100 | Plant response rating, Windgrass (windgrass [1]; 125 g ai/ha): 100 | Plant response rating, Windgrass (windgrass [1]; 250 g ai/ha): 100 | Canarygrass plant response rating (canarygrass; Postemergence, 31 g ai/ha): 10 | Canarygrass plant response rating (canarygrass; Postemergence, 125 g ai/ha): 25 | Canarygrass plant response rating (canarygrass; Postemergence, 250 g ai/ha): 40 | Canarygrass plant response rating (canarygrass; postemergence, 62 g ai/ha): 15 | Bromegrass, Downy plant response rating (bromegrass, downy; Postemergence, 31 g ai/ha): 10 | Bromegrass, Downy plant response rating (bromegrass, downy; Postemergence, 125 g ai/ha): 20 | Bromegrass, Downy plant response rating (bromegrass, downy; Postemergence, 250 g ai/ha): 30 | Bromegrass, Downy plant response rating (bromegrass, downy; postemergence, 62 g ai/ha): 15 | Field Violet plant response rating (field violet; Postemergence, 31 g ai/ha): 40 | Field Violet plant response rating (field violet; Postemergence, 125 g ai/ha): 90 | Field Violet plant response rating (field violet; Postemergence, 250 g ai/ha): 100 | Field Violet plant response rating (field violet; postemergence, 62 g ai/ha): 75 | Pigweed plant response rating (pigweed; Postemergence, 31 g ai/ha): 85 | Pigweed plant response rating (pigweed; Postemergence, 125 g ai/ha): 80 | Pigweed plant response rating (pigweed; Postemergence, 250 g ai/ha): 85 | Pigweed plant response rating (pigweed; postemergence, 62 g ai/ha): 75 | Windgrass plant response rating (windgrass [2]; Postemergence, 31 g ai/ha): 15 | Windgrass plant response rating (windgrass [2]; Postemergence, 125 g ai/ha): 40 | Windgrass plant response rating (windgrass [2]; Postemergence, 250 g ai/ha): 70 | Windgrass plant response rating (windgrass [2]; postemergence, 62 g ai/ha): 25 | Plant response rating, Corn (corn; [3]): 40 | Plant response rating, Corn (corn; [4]): 40 | Plant response rating, Corn (corn; [5]): 60 | Plant response rating, Corn (corn; [6]): 20 | Plant response rating, Corn (corn; [7]): 30 | Plant response rating, Surinam Grass (Surinam grass; [3]): 10 | Plant response rating, Surinam Grass (Surinam grass; [4]): 35 | Plant response rating, Surinam Grass (Surinam grass; [5]): 40 | Plant response rating, Surinam Grass (Surinam grass; [6]): 0 | Plant response rating, Surinam Grass (Surinam grass; [7]): 10 | Plant response rating, Crabgrass, Brazil (crabgrass, Brazil; [3]): 98 | Plant response rating, Crabgrass, Brazil (crabgrass, Brazil; [4]): 100 | Plant response rating, Crabgrass, Brazil (crabgrass, Brazil; [5]): 100 | Plant response rating, Crabgrass, Brazil (crabgrass, Brazil; [6]): 5 | Plant response rating, Crabgrass, Brazil (crabgrass, Brazil; [7]): 40 | Plant response rating, Common Ragweed (common ragweed; [4]): 35 | Plant response rating, Common Ragweed (common ragweed; [5]): 100 | Plant response rating, Common Ragweed (common ragweed; [6]): 0 | Plant response rating, Common Ragweed (common ragweed; [7]): 0 | Plant response rating, Barnyardgrass (barnyardgrass; [3]): 30 | Plant response rating, Barnyardgrass (barnyardgrass; [4]): 98 | Plant response rating, Barnyardgrass (barnyardgrass; [5]): 98 | Plant response rating, Barnyardgrass (barnyardgrass; [6]): 0 | Plant response rating, Barnyardgrass (barnyardgrass; [7]): 5 | Plant response rating, Southern Sandbur (southern sandbur; [3]): 10 | Plant response rating, Southern Sandbur (southern sandbur; [4]): 75 | Plant response rating, Southern Sandbur (southern sandbur; [5]): 95 | Plant response rating, Southern Sandbur (southern sandbur; [6]): 0 | Plant response rating, Southern Sandbur (southern sandbur; [7]): 0
